Source: PMC3914206

Legend:
panel of 442 kinases [1] = molecular target: T1, panel of 442 kinases (Homo sapiens, UniProt Q8IYT8); format: binding; conditions: kinase ULK2; compound concentration 10 µM
T1 construct: purchased KINOMEscan
T1 sequence (Q8IYT8 1-1036): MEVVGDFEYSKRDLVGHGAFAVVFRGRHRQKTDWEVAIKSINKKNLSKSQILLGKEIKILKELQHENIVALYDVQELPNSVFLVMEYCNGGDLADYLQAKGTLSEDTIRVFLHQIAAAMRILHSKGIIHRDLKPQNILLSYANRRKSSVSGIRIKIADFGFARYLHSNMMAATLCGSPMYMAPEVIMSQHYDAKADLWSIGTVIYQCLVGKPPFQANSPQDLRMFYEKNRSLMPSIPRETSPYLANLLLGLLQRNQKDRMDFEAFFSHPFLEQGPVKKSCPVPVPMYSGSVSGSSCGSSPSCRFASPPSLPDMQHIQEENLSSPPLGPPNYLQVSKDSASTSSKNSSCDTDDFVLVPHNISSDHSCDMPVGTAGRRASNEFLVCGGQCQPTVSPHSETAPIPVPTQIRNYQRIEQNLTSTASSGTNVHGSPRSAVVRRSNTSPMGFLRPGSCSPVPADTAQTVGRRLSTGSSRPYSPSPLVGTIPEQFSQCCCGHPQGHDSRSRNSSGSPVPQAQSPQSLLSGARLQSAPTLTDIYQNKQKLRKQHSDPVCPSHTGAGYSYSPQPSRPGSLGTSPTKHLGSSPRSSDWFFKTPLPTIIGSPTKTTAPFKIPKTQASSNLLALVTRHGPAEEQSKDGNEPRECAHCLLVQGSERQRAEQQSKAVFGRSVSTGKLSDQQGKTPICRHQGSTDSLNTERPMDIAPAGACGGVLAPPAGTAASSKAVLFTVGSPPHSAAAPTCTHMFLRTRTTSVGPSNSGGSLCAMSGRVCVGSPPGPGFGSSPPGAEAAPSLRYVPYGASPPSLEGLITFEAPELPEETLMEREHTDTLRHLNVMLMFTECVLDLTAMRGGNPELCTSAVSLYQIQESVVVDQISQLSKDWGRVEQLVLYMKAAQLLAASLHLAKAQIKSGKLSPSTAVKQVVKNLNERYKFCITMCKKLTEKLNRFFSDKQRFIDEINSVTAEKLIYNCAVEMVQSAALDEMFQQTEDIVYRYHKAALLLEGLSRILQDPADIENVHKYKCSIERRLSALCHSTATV
Description: (§1) We assessed the selectivity of members of this scaffold using the KINOMEscan methodology across a near comprehensive panel of 442 kinases [[18,27]].

panel of 442 kinases [2] = molecular target: T2, panel of 442 kinases (Homo sapiens, UniProt P10721, A829P); format: binding; conditions: Compound Concentration 10 µM
T2 construct: purchased KINOMEscan
Description: as §1

T2 sequence (P10721 26-976 A829P): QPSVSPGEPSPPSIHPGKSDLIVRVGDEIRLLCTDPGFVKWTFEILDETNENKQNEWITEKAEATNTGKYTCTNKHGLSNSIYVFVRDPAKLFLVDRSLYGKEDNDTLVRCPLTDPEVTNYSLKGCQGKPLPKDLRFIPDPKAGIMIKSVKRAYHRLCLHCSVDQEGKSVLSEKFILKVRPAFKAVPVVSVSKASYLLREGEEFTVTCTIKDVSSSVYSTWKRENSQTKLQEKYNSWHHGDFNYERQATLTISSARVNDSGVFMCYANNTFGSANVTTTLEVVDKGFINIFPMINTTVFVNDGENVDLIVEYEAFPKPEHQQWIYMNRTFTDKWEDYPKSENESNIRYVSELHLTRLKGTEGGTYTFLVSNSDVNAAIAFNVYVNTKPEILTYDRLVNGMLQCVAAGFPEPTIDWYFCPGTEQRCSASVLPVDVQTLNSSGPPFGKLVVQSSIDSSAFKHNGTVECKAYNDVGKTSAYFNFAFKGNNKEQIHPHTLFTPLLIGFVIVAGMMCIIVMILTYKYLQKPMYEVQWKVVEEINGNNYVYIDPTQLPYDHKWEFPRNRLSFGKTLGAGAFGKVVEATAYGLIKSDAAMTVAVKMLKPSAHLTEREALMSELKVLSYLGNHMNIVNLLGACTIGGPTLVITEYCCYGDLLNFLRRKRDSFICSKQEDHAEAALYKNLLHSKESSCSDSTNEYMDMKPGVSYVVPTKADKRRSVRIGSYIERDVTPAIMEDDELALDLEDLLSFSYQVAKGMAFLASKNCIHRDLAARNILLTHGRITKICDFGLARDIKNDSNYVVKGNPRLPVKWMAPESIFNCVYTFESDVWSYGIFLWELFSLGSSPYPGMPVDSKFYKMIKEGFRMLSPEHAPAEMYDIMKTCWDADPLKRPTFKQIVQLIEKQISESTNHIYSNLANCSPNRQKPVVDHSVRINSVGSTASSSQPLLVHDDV

Structure (SMILES): COc1cc(C(=O)N2CCC(N3CCN(C)CC3)CC2)ccc1Nc1ncc2c(n1)N(C)c1ccccc1C(=O)N2C [15 (LRRK2-IN-1)]
- % Ctrl, ULK2 (panel of 442 kinases [1]): 67 % Ctrl
- KINOMEscan: KIT(A829P) (panel of 442 kinases [2]): 100

Structure (SMILES): COc1cc(C(=O)N2CCC(N3CCN(C)CC3)CC2)ccc1Nc1ncc2c(n1)N1CCc3cccc(c31)C(=O)N2C [Compound 24]
- % Ctrl, ULK2 (panel of 442 kinases [1]): 96 % Ctrl

Structure (SMILES): COc1cc(C(=O)N2CCC(N3CCN(C)CC3)CC2)ccc1Nc1ncc2c(n1)N(C1CCCC1)c1ccccc1C(=O)N2C [Compound 25, 11-cyclopentyl-2-((2-methoxy-4-(4-(4-methylpiperazin-1-yl)piperidine-1-carbonyl)phenyl)amino)-5-methyl-5H-benzo[e]pyrimido[5,4-b][1,4]diazepin-6(11H)-one]
- % Ctrl, ULK2 (panel of 442 kinases [1]): 75 % Ctrl
- KINOMEscan: KIT(A829P) (panel of 442 kinases [2]): 95

Structure (SMILES): CCOc1cc(C(=O)N2CCC(N3CCN(C)CC3)CC2)ccc1Nc1ncc2c(n1)N(C1CCCC1)c1ccccc1C(=O)N2C [Compound 26]
- % Ctrl, ULK2 (panel of 442 kinases [1]): 98 % Ctrl
- KINOMEscan: KIT(A829P) (panel of 442 kinases [2]): 74
